# US20220062166A1, “Self-Gelling Solutions for Administration of Therapeutics to the Inner Ear” (Spiral Therapeutics, Inc., priority 2019, published 2022)
# “Also recorded” adds a separate entry of the source.
# Assays:
# caspase 3 = target: T1, caspase 3 (Homo sapiens, UniProt P42574); assay: Caspase 3 activation assay with recombinant proteins; format: biochemical; conditions: in %
# T1 sequence (P42574 29-277): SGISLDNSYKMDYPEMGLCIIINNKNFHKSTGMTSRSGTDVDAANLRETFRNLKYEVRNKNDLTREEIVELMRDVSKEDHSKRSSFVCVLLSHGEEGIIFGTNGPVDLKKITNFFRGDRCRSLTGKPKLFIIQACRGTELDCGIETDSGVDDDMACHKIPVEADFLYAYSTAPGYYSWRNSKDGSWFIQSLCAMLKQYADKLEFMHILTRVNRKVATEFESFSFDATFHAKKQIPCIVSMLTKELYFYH
# Method: (§1) The specificity of LPT99 was tested in vitro on Apaf1, caspase 3, and caspase 9 (proteins from the apoptotic cascade), and a broad panel of potential pharmacological targets.
# (§2) LPT99 inhibited the formation of the apoptosome complex composed by recombinant Apaf1, cyt c, deoxyadenosine triphosphate (dATP), and caspase 9. This activity was measured as inhibition of caspase 3 activation. […] To evaluate the specificity of the inhibition, an assay of caspase 3 and 9 activation was set up with recombinant proteins. The inhibitions of caspase 3 and 9 were 7.6±14.7 and 5.3±3.5, respectively, for LPT99.
# caspase 9 = target: T2, caspase 9 (Homo sapiens, UniProt P55211); assay: Caspase 9 activation assay with recombinant proteins; format: biochemical; conditions: in %
# T2 sequence (P55211 1-416): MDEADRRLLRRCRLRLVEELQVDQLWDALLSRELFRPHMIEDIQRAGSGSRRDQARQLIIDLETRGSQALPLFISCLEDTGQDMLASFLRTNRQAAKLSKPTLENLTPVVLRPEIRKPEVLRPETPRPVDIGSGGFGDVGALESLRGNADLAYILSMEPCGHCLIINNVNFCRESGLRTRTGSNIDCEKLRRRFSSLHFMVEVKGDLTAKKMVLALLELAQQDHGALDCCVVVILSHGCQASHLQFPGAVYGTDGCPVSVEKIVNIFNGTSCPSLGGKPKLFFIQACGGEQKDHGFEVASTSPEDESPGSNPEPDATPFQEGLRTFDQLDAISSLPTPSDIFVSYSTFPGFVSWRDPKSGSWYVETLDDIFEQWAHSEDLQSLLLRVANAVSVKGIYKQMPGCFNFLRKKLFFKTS
# Method: as §1, §2
# HEI-OC1 cells = assay: Release of mitochondrial cyt c in HEI-OC1 cells with CisPt (flow cytometry); format: cell-based
# Method: Flow cytometry was also used to characterize the effect of LPT99 in the release of mitochondrial cyt c in HEI-OC1 cells in vitro with CisPt prevention. Results
# The effect of LPT99 on proliferation of non-apoptotic cells was studied. A549 cells were cultured in the presence of LPT99 for up to 6 days; the cell number was monitored by flow cytometry, and doubling time was calculated.
# [1] = Plasma concentrations after TT administration of LPT99-CD in female Wistar rats; format: in vivo, rat
# [2] = Cochlear and plasma distribution after TT administration in rats (UPLC-ESI/MS/MS); format: in vivo, rat
# Description: Cochleae were harvested and rinsed at several timepoints after intratympanic injection of drug product. Drug concentration (y axis) in cochlear homogenates is expressed as nanograms LPT99 per gram of cochlear homogenate.
# LPT99 cochlear distribution after TT administration was studied in rats. […] LPT99 concentration was quantified with an ultra-performance liquid chromatography tandem mass spectrometry (UPLC-ESI/MS/MS) system.
# Distribution of LPT99 was investigated in cochlea and plasma after a single TT administration in rats. The inhibitor was administered at 50, 100, or 200 μM (dissolved in 5% hydroxypropyl cyclodextrin in physiological serum).
# [3] = system: ion channels, including hERG potassium channels; assay: Effects on ion channels including hERG in CHO and HEK 293 cells; format: cell-based
# Description: Torsadogenic refers to the development of torsade de Pointes (TdP) arrhythmias
# [4] = Metabolic profile and stability in microsomal and S9 hepatic fractions; format: in vitro ADME, human, dog, rabbit, rat, and mouse
# Description: The metabolic profile and stability of LPT99 was characterized in human, dog, rabbit, rat, and mouse microsomal and S9 fractions, and in human cytosolic fractions.
# [5] = Physical stability of drug product vials; format: physicochemical; conditions: vials stored at 4C
# Method: Vials of the drug product were stored at either room temperature or 4° C. for a period greater than three months. To test the LPT99 concentration in vials, the liquid drug product was filtered through sterile 0.2 micron filters.
# [6] = GLP auditory safety study in rats after single TT administration; conditions: rat, in vivo
# Method: The study consisted of 10 groups of rats: 6 groups for toxicology (Groups 1 to 6, 20 males and 20 females per group), and 4 groups for toxicokinetics (Groups 7 to 10, 6 males and 6 females per group).
# All animals were assessed weekly for body weights and qualitative food consumption. In addition, otoscopic evaluation of the dosing sites (tympanic membrane, Groups 1 to 6) and ABR testing for hearing function were performed at predosing; and on Days 1, 7, and/or 14. Animals in the toxicology groups (Groups 1 to 6) were sacrificed on Day 1 (10 males and 10 females per group) and Day 14 (the remaining 10 males and 10 females per group). At necropsy, terminal blood samples were tested for hematology, serum chemistry, and coagulation parameters. Gross observations were recorded, and selected organs were weighed. One ear per animal in Groups 1 to 5 was collected and processed for cytocochleogram assessment.
compound,measurement,setting,value
"COc1ccc2[nH]cc(CCNC(=O)CC3C(=O)N(CCc4ccc(Cl)cc4Cl)CC(=O)N3CCc3cccs3)c2c1 (stereo not shown) [LPT99, 2-(4-(2,4-dichlorophenethyl)-3,6-dioxo-1-(2-(thiophen-2-yl)ethyl)piperazin-2-yl)-N-(2-(5-methoxy-1H-indol-3-yl)ethyl)acetamide]",inhibition of caspase 3,caspase 3,7.6±14.7
same,inhibition of caspase 9,caspase 9,5.3±3.5
same,release of mitochondrial cyt c,"HEI-OC1 cells; HEI-OC1 cells, after CisPt alone or pre-incubated with LPT99",68.1% ±1.0%
same,release of cyt c from mitochondria,HEI-OC1 cells; cellular model of CisPt-induced apoptosis,decreased release of cyt c from mitochondria
same,plasma concentration of 3.2 nM as fraction of administered dose,[1]; 50 μM dose,0.006%
same,plasma concentration of 3.2 nM as fraction of administered dose,[1]; 100 μM dose,0.003%
same,plasma concentration of 3.2 nM as fraction of administered dose,[1]; 200 μM dose,0.0016%
same,plasma level after TT administration (not detectable; detection limit),[1]; TT administration,< 3.2 nM
same,Plasma LPT99 concentrations (BLLQ),"[1]; female Wistar rats, 1 hour and 2, 4, 7, 15 days after single 50 μL TT dose of 50, 100, or 200 μM LPT99-CD",< 2 ng/mL
same,detection in administered cochleae,"[2]; 0.5 and 1 hour, 50, 100, or 200 μM in 5% hydroxypropyl cyclodextrin",detected in all administered cochleae
same,LPT99 in plasma (not found; detection limit),[2]; after TT administration of the LPT99 formulation in a hydrogel,< 2 ng/mL
same,concentrations in contralateral cochleae and plasma,"[2]; all time points, 50, 100, or 200 μM in 5% hydroxypropyl cyclodextrin",BLLQ
same,LPT99 concentrations in plasma (BLLQ),[2]; all time-points and doses,< 2 ng/mL
same,LPT99 concentrations in the contralateral cochleae (BLLQ),[2]; all time-points and doses,< 3 ng/g
same,distribution to cochlea after TT administration,"[2]; rats, FIG. 4",distributed locally to the cochlea; also recorded: distributed to cochlea in a dose-dependent manner
same,distribution to contralateral cochleae or plasma,"[2]; rats, TT",No distribution to the contralateral cochleae or plasma was observed
same,torsadogenic risk,[3],low torsadogenic risk
same,number of metabolites formed through phase I biotransformation,[4],≤ 9
same,metabolized after 1 hour,"[4]; microsomal and S9 hepatic fractions, all tested species",> 90%
same,time to LPT99 precipitation,[5],approximately 2 months
same,hair cell loss (cytocochleogram),[6],no reliable evidence of test-article-related hair cell loss
same,"otoscopic scores (erythema, edema, wounds) of tympanic membranes",[6],no statistically significant changes
